Test results as given in ChEMBL document CHEMBL1201862, “PubChem BioAssay data set” (2004).
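Exposure lasted 48 hours, with cells grown in 96-well plates and compounds tested at five concentrations. GI50 marks 50% less growth.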 The source made the active and inactive calls. No stated cut-off is given here; in the data, active = GI50 up to about 1.1 µM and inactive = higher.

Assays:
Experiment in all cases: DTP human tumour cell line panel, 48 h
786-0 = system: 786-0
CAKI-1 = system: CAKI-1
COLO 205 = system: COLO 205
DU-145 = system: DU-145
HCC 2998 = system: HCC 2998
HCT-15 = system: HCT-15
HL-60 = system: HL-60
Hs-578T = system: Hs-578T
K562 = system: K562
LOX IMVI = system: LOX IMVI
MDA-MB-231 = system: MDA-MB-231
MDA-N = system: MDA-N
NCI-H460 = system: NCI-H460
OVCAR-4 = system: OVCAR-4
RPMI-8226 = system: RPMI-8226
SF-295 = system: SF-295
SK-MEL-2 = system: SK-MEL-2
SK-MEL-5 = system: SK-MEL-5
SK-OV-3 = system: SK-OV-3
SNB-75 = system: SNB-75

Compound	GI50 (786-0)	GI50 (CAKI-1)	GI50 (COLO 205)	GI50 (DU-145)	GI50 (HCC 2998)	GI50 (HCT-15) [µM]	GI50 (HL-60)	GI50 (Hs-578T)	GI50 (K562)	GI50 (LOX IMVI)	GI50 (MDA-MB-231)	GI50 (MDA-N)	GI50 (NCI-H460)	GI50 (OVCAR-4)	GI50 (RPMI-8226)	GI50 (SF-295)	GI50 (SK-MEL-2)	GI50 (SK-MEL-5)	GI50 (SK-OV-3)	GI50 (SNB-75)
C=C(C)C1CC2=C(C(=O)OC)C=C(O2)C(C(=C)C)[C@@H]2OC(=O)/C(=C\C1O)[C@H]2N(C)C (stereo not given in full)	8.05 µM (inactive)	7.71 µM (inactive)	9.4 µM (inactive)	12.1 µM (inactive)	14.7 µM (inactive)	5.97	2.82 µM (inactive)	18.9 µM (inactive)	3.6 µM (inactive)	8.09 µM (inactive)	21.5 µM (inactive)	11.4 µM (inactive)	15.2 µM (inactive)	5.64 µM (inactive)	3.23 µM (inactive)	17.5 µM (inactive)	13 µM (inactive)	14.2 µM (inactive)	24.9 µM (inactive)	14.6 µM (inactive)
N#Cc1c(-c2ccccc2)[nH]c2ccc(Cl)cc2c1=O	30.5 µM (inactive)	1.62 µM (inactive)	> 100 µM (inactive)	> 100 µM (inactive)	> 100 µM (inactive)	> 100	> 100 µM (inactive)	34.8 µM (inactive)	> 100 µM (inactive)	> 100 µM (inactive)	21.7 µM (inactive)	> 100 µM (inactive)	> 100 µM (inactive)	> 100 µM (inactive)	> 100 µM (inactive)	22.4 µM (inactive)	16.7 µM (inactive)	> 100 µM (inactive)	25.1 µM (inactive)	44.7 µM (inactive)
CC(C)c1ccc(C(c2c(O)oc3ccccc3c2=O)c2c(O)oc3ccccc3c2=O)cc1	21.1 µM (inactive)	22.8 µM (inactive)	18.7 µM (inactive)	23.8 µM (inactive)	18.7 µM (inactive)	19.1	6.03 µM (inactive)	25.6 µM (inactive)	18.2 µM (inactive)	17.7 µM (inactive)	21.4 µM (inactive)	21.5 µM (inactive)	18.7 µM (inactive)	28.4 µM (inactive)	17.7 µM (inactive)	20 µM (inactive)	14.5 µM (inactive)	16 µM (inactive)	27 µM (inactive)	25.9 µM (inactive)
